Measured values published in patent US9480259B2, “Pyrazolopyrans having herbicidal and pharmaceutical properties” (BASF SE, priority 2012, dated 2016).

How the values were obtained:
[1] = system: SETFA, AMARE, POLCO, CHEAL, GALAP; experiment: Greenhouse herbicidal test, post-emergence, weed panel; type: in vivo; details: application rate 1 kg/ha, scale 0 to 100
Description: The seeds of the test plants were sown separately for each species. For the post-emergence treatment, the test plants were first grown to a height of 2 to 5 cm, depending on the plant habit, and only then treated with the active ingredients which had been suspended or emulsified in water. For this purpose, the test plants were either sown directly and grown in the same containers, or they were first grown separately as seedlings and transplanted into the test containers a few days prior to treatment. Depending on the species, the plants were kept at 10-25° C. or 20-35° C. The test period extended over 8 to 9 days. During this time, the plants were tended, and their response to the individual treatments was evaluated. Evaluation was carried out using a scale from 0 to 100. 100 means no emergence of the plants, or complete destruction of at least the aerial moieties, and 0 means no damage, or normal course of growth. A good herbicidal activity is given at values of at least 70 and a very good herbicidal activity is given at values of at least 85. The plants used in the greenhouse experiments belonged to the following species: [table]

[2] = target: Arabidopsis thaliana SHMT; experiment: SHMT activity assay (ED50 SHMT), coupled with N5,N10-CH2-THF dehydrogenase, NADH at 340 nm; type: biochemical
Procedure, shortened: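 His-tagged SHMT purified on Ni-NTA. NADH formation followed at 340 nm for 30 min; ED50 from inhibition of initial velocity.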

[3] = Table 2, Arabidopsis thaliana SHMT enzyme assay, values given as upper bounds
[4] = Arabidopsis thaliana SHMT enzyme assay, values given as upper bounds
[5] = Table 2, values given as upper bounds
[6] = inhibition of initial velocity of Arabidopsis thaliana SHMT

Row | SMILES | EC50 [2, 5] [nM] | other results
1 | Cc1n[nH]c2c1C(c1cc(C#N)cc(OC(F)(F)F)c1)(C1CCC1)C(C#N)=C(N)O2 (racemic) [Compound 2.417] | – | herbicidal activity against at least three of the weeds SETFA, AMARE, POLCO, CHEAL, GALAP [1]: good or very good
2 | Cc1n[nH]c2c1C(c1cc(Cl)cc(C#N)c1)(C1(F)CC1)C(C#N)=C(N)O2 (racemic) [Compound 2.400] | – | herbicidal activity against at least three of the weeds SETFA, AMARE, POLCO, CHEAL, GALAP [1]: good or very good
3 | Cc1n[nH]c2c1C(c1cc(Cl)cc(Cl)c1)(C(C)C)C(C#N)=C(N)O2 (racemic) [Compound 2.112] | – | herbicidal activity against at least three of the weeds SETFA, AMARE, POLCO, CHEAL, GALAP [1]: good or very good
4 | CC(=O)N(C)c1cc(C#N)cc(C2(C3CCC3)C(C#N)=C(N)Oc3[nH]nc(C)c32)c1 (racemic) [Compound 2.414] | – | herbicidal activity against at least three of the weeds SETFA, AMARE, POLCO, CHEAL, GALAP [1]: good or very good
5 | CC(=O)N(C)c1cc(C(F)(F)F)cc(C2(C3(F)CC3)C(C#N)=C(N)Oc3[nH]nc(C)c32)c1 (racemic) [Compound 2.439] | – | herbicidal activity against at least three of the weeds SETFA, AMARE, POLCO, CHEAL, GALAP [1]: good or very good
6 | Cc1n[nH]c2c1C(c1cc(C#N)cc(C(F)(F)F)c1)(C1(F)CC1)C(C#N)=C(N)O2 (racemic) [Compound 2.404] | – | herbicidal activity against at least three of the weeds SETFA, AMARE, POLCO, CHEAL, GALAP [1]: good or very good
7 | Cc1n[nH]c2c1C(c1cccc(C(F)(F)F)c1)(C1CCCCC1)C(C#N)=C(N)O2 (stereo not shown) [Compound 2.230] | – | EC50 [2, 3]: < 10000 nM
8 | Cc1n[nH]c2c1C(c1cc(C#N)cc(C#N)c1)(C1CC(F)(F)C1)C(C#N)=C(N)O2 (stereo not shown) [Compound 2.707] | – | EC50 [2, 4]: < 1000 nM
9 | Cc1n[nH]c2c1C(c1cc(Cl)cc(Oc3cccc(F)c3)c1)(C1CCC1)C(C#N)=C(N)O2 (stereo not shown) [Compound 2.200.] | < 100 | –
10 | Cc1n[nH]c2c1C(c1cc(-c3ccccc3)cs1)(C1CCC1)C(C#N)=C(N)O2 (stereo not shown) [Compound 4.24] | – | EC50 [2, 6]: < 10 nM
11 | Cc1n[nH]c2c1C(c1cc(Cl)cc(-c3ccc(O)cc3)c1)(C1CCC1)C(C#N)=C(N)O2 (stereo not shown) [Compound 2.226] | – | EC50 [2, 3]: < 10 nM
12 | COC(=O)CCc1cccc(-c2cc(C#N)cc(C3(C4CCC4)C(C#N)=C(N)Oc4[nH]nc(C)c43)c2)c1 (stereo not shown) [Compound 2.523] | < 10 | –
13 | COc1n[nH]c2c1C(c1cc(Cl)cc(Cl)c1)(C(C)C)C(C#N)=C(N)O2 (stereo not shown) [Compound 2.378] | – | EC50 [2, 3]: < 10 nM
14 | Cc1n[nH]c2c1C(CCC(F)(F)F)(c1cccc(C(F)(F)F)c1)C(C#N)=C(N)O2 (stereo not shown) [Compound 2.101.] | < 10000 | –
15 | CCOc1n[nH]c2c1C(c1cc(C#N)cc(C(F)(F)F)c1)(C1CC1)C(C#N)=C(N)O2 (stereo not shown) [Compound 2.393] | – | EC50 [2, 3]: < 1000 nM
16 | Cc1n[nH]c2c1C(c1cccc(Cl)c1)(C1CCCC1)C(C#N)=C(N)O2 (stereo not shown) [Compound 2.211.] | < 100 | –
17 | Cc1n[nH]c2c1C(c1cc(Cl)cc(NS(=O)(=O)c3ccccc3)c1)(C1CCC1)C(C#N)=C(N)O2 (stereo not shown) [Compound 2.490] | < 10 | –
18 | Cc1n[nH]c2c1C(c1cc(Cl)cc(Oc3ccc(O)c(C(F)(F)F)c3)c1)(C1CCC1)C(C#N)=C(N)O2 (stereo not shown) [Compound 2.597] | < 100 | –

Row | SMILES | EC50 [2, 5] [nM] | other results
19 | Cc1n[nH]c2c1C(c1ccc(-c3ccccc3F)s1)(C1CCC1)C(C#N)=C(N)O2 (stereo not shown) [Compound 4.17] | – | EC50 [2, 6]: < 10 nM
20 | N#CC1=C(N)Oc2[nH]nc(C3CC3)c2C1(c1ccc(Cl)cc1)C1CCC1 (stereo not shown) [Compound 2.140.] | < 10000 | –
21 | Cc1n[nH]c2c1C(c1cc(C#N)cc(-c3ccccc3)c1)(C1CCC1)C(C#N)=C(N)O2 (stereo not shown) [Compound 2.323] | – | EC50 [2, 3]: < 100 nM
22 | Cc1n[nH]c2c1C(c1cc(C#N)cc(-c3cc(Cl)sc3Cl)c1)(C1CCC1)C(C#N)=C(N)O2 (stereo not shown) [Compound 2.364] | – | EC50 [2, 3]: < 10 nM
23 | CSc1cccc(C2(C3CCC3)C(C#N)=C(N)Oc3[nH]ncc32)c1 (stereo not shown) [Compound 2.311] | – | EC50 [2, 3]: < 1000 nM
24 | Cc1n[nH]c2c1C(c1cc(Cl)cc(I)c1)(C1CCC1)C(C#N)=C(N)O2 (stereo not shown) [Compound 2.299] | – | EC50 [2, 3]: < 10 nM
25 | Cc1n[nH]c2c1C(c1cc(Cl)cc(N(C)C(=O)CCc3nnn[nH]3)c1)(C1CCC1)C(C#N)=C(N)O2 (stereo not shown) [Compound 2.698] | – | EC50 [2, 4]: < 100 nM
26 | CCOC(=O)CS(=O)(=O)N(C)c1cc(C#N)cc(C2(C3CCC3)C(C#N)=C(N)Oc3[nH]nc(C)c32)c1 (stereo not shown) [Compound 2.719] | – | EC50 [2, 4]: < 100 nM
27 | CC(C)C1(c2cc(Cl)cc(Br)c2)C(C#N)=C(N)Oc2[nH]ncc21 (stereo not shown) [Compound 2.317] | – | EC50 [2, 3]: < 10 nM
28 | Cc1n[nH]c2c1C(c1cc(Cl)cc(-c3ccco3)c1)(C1CCC1)C(C#N)=C(N)O2 (stereo not shown) [Compound 2.262] | – | EC50 [2, 3]: < 10 nM
29 | Cc1n[nH]c2c1C(c1cc(Cl)cc(-c3ccccn3)c1)(C1CCC1)C(C#N)=C(N)O2 (stereo not shown) [Compound 2.318] | – | EC50 [2, 3]: < 10 nM
30 | CC(C)C1(c2cc(C#N)cc(C(F)(F)F)c2)C(C#N)=C(N)Oc2[nH]ncc21 (stereo not shown) [Compound 2.337] | – | EC50 [2, 3]: < 10 nM
31 | Cc1n[nH]c2c1C(c1cc(C#N)cc(-c3cccc(Cl)c3)c1)(C1CCC1)C(C#N)=C(N)O2 (stereo not shown) [Compound 2.332] | – | EC50 [2, 3]: < 10 nM
32 | COC(=O)c1ccc(-c2cc(C#N)cc(C3(C(C)C)C(C#N)=C(N)Oc4[nH]nc(C)c43)c2)s1 (stereo not shown) [Compound 2.705] | – | EC50 [2, 4]: < 10 nM
33 | Cc1n[nH]c2c1C(c1cc(C#N)cc(-c3nnn[nH]3)c1)(C1CCC1)C(C#N)=C(N)O2 (stereo not shown) [Compound 2.357] | – | EC50 [2, 3]: < 100 nM
34 | COc1ccc2cc(C3(C4(F)CC4)C(C#N)=C(N)Oc4[nH]ncc43)ccc2c1 (racemic) [Compound 4.75] | – | EC50 [2, 6]: < 1000 nM
35 | Cc1n[nH]c2c1C(c1cc(Cl)cc(Oc3ccc(F)cc3)c1)(C1CCC1)C(C#N)=C(N)O2 (stereo not shown) [Compound 2.201.] | < 100 | –

Further lines, with some results ahead:

Row | EC50 [2, 5] [nM] | SMILES | other results
36 | < 100 | CCC1(c2cc(Cl)cc(Cl)c2)C(C#N)=C(N)Oc2[nH]nc(C)c21 (stereo not shown) [Compound 2.12.] | –
37 | < 10000 | CCC1(c2cccc(C(F)(F)F)c2)C(C#N)=C(N)Oc2[nH]nc(COC)c21 (racemic) [Compound 2.97.] | –
38 | < 10 | Cc1n[nH]c2c1C(c1cc(C#N)cc(-c3cccc(C(=O)O)c3)c1)(C1(F)CC1)C(C#N)=C(N)O2 (stereo not shown) [Compound 2.511] | –
39 | < 1000 | Cc1n[nH]c2c1C(c1cc(Cl)cc(Cl)c1)(C(F)(F)F)C(C#N)=C(N)O2 (stereo not shown) [Compound 2.88.] | –
40 | < 10000 | CCC1(c2ccc(NC(=O)C(C)(C)C)cc2)C(C#N)=C(N)Oc2[nH]nc(C)c21 (stereo not shown) [Compound 2.39.] | –
41 | < 100 | Cc1n[nH]c2c1C(c1cc(Cl)c(O)c(C#N)c1)(C1CCC1)C(C#N)=C(N)O2 (stereo not shown) [Compound 2.567] | –
42 | < 10 | COc1c(C#N)cc(C2(C3CCC3)C(C#N)=C(N)Oc3[nH]nc(C)c32)cc1C(F)(F)F (stereo not shown) [Compound 2.491] | –
43 | < 1000 | CCC1(c2cccc(Cl)c2)C(C#N)=C(N)Oc2[nH]nc(C(F)F)c21 (stereo not shown) [Compound 2.165.] | –
44 | < 10000 | CCCC1(c2cc(Cl)cc(C#N)c2)C(C#N)=C(N)Oc2[nH]nc(COC)c21 (stereo not shown) [Compound 2.591] | –
45 | < 100 | Cc1n[nH]c2c1C(c1cc(C#N)cc(-c3cc(Cl)cc(C(=O)O)c3)c1)(C1CCC1)C(C#N)=C(N)O2 (stereo not shown) [Compound 2.559] | –
46 | < 10000 | Cc1n[nH]c2c1C(c1cc(Br)cc(OCC(=O)O)c1)(C1CCC1)C(C#N)=C(N)O2 (stereo not shown) [Compound 2.507] | –
47 | < 10 | CCC1(c2cc(Br)cc(C#N)c2)C(C#N)=C(N)Oc2[nH]nc(C(F)F)c21 (stereo not shown) [Compound 2.607] | –
48 | < 10 | CC(=O)N(C)c1cc(C#N)cc(C2(C3(F)CC3)C(C#N)=C(N)Oc3[nH]nc(C)c32)c1 (stereo not shown) [Compound 2.451] | –
49 | < 1000 | CCC1(c2ccc(OS(=O)(=O)c3ccccc3)c(C)c2)C(C#N)=C(N)Oc2[nH]nc(C)c21 (stereo not shown) [Compound 2.58.] | –
50 | < 10 | Cc1n[nH]c2c1C(c1cc(Cl)cc(-c3cccc(C#N)c3)c1)(C1CCC1)C(C#N)=C(N)O2 (stereo not shown) [Compound 2.512] | –
51 | < 100 | Cc1n[nH]c2c1C(c1cc(O)cc(C#N)c1)(C1CCC1)C(C#N)=C(N)O2 (stereo not shown) [Compound 2.626] | –
52 | < 10000 | CC(C)CC1(c2cc(Cl)cc(Cl)c2)C(C#N)=C(N)Oc2[nH]ncc21 (stereo not shown) [Compound 2.205.] | –
53 | < 100 | CCCC1(c2cc(C#N)cc(C(F)(F)F)c2)C(C#N)=C(N)Oc2[nH]nc(COC)c21 (stereo not shown) [Compound 2.589] | –
54 | < 100 | CCC1(c2cc(C(F)(F)F)cc(C(F)(F)F)c2)C(C#N)=C(N)Oc2[nH]nc(C3CC3)c21 (stereo not shown) [Compound 2.121.] | –
55 | < 10000 | CCC1(c2cccc(F)c2)C(C#N)=C(N)Oc2[nH]nc(C)c21 (stereo not shown) [Compound 2.15.] | –
56 | < 1000 | Cc1n[nH]c2c1C(CC(C)C)(c1cccc(Cl)c1)C(C#N)=C(N)O2 (stereo not shown) [Compound 2.126.] | –
57 | < 100 | COC(=O)c1cc(-c2cc(C#N)cc(C3(C4CCC4)C(C#N)=C(N)Oc4[nH]nc(C)c43)c2)cc(C(F)(F)F)c1 (stereo not shown) [Compound 2.552] | –
58 | < 1000 | CCC1(c2ccc(OC(=O)c3ccccc3)c(C)c2)C(C#N)=C(N)Oc2[nH]nc(C)c21 (stereo not shown) [Compound 2.49.] | –
